In patent US10669238B2, “Irreversible bruton's tyrosine kinase inhibitor” (HEFEI INSTITUTES OF PHYSICAL SCIENCE, CHINESE ACADEMY OF …, priority 2016, dated 2020):

What was measured:
[1] = system: diffuse large B-cell lymphoma cell lines TMD8; assay: Cell proliferation (Cell Titer-Glo), TMD8; assay type: cell-based; conditions: Homo sapiens, TMD8, 72 h, read-out: Effects on cell proliferation (GI50)
Source text: The following cells were adopted in the example: acute myelocytic leukemia cell strains (acute myelocytic leukemia, AML) HL-60, B-lymphoma cell Ramos, colon cancer cells HCT116, leukemic cells K562, B-cell lymphoma cells U2932, diffuse large B-cell lymphoma cell line OCI-LY10, diffuse histiocytic lymphoma cells SU-DHL-2, diffuse large B-cell lymphoma cell lines TMD8, leukemia cell OCI-AML-3, acute promyelocytic leukemia cell line NB-4 (Lu+), MDS-RAEB (myelodysplastic syndrome—excessive blasts) cell lines SKM-1, human leukocyte leukemia cells HEL, acute myeloid leukemia cell lines (acute myelocytic leukemia, AML) U937, acute myeloid leukemia cell lines (acute myelocytic leukemia, AML) MOLM14, acute myeloid leukemia cell lines (acute myelocytic leukemia, AML) MOLM13, acute myeloid leukemia cell lines (acute myelocytic leukemia, AML) M-07e, acute myeloid leukemia cell lines (acute myelocytic leukemia, AML) MV4-11, acute myeloid leukemia cell lines (acute myelocytic leukemia, AML) MOLM16, diffuse large B-cell lymphoma cell lines Pfeiffer, multiple myeloma cell lines (multiple myeloma) RPM18226, bone marrow plasma cell tumor cells AMO-1, mouse pro-B cells BaF3, all purchased from ATCC.
In this example different concentrations (0.000508 μM, 0.00152 μM, 0.00457 μM, 0.0137 μM, 0.0411 μM, 0.123 μM, 0.370 μM, 1.11 μM, 3.33 μM, 10 μM) of Compound 1 and Compound 6 were respectively added into the above cells which were then cultured for 72 hours. The number of viable cells was determined via quantitative determination of ATP in living cells by using Cell Titer-Glo® (Promega, the USA) Chemical Luminescent Cell Viability Assay kit.

BTK WT = BTK WT (Homo sapiens, UniProt Q06187); assay: Btk cell-free kinase assay, BTK WT protein; assay type: biochemical; conditions: compound 30 mins at room temperature, then 100 μM ATP 20 min at 37° C.; read-out: EC50 against BTK WT protein
Sequence of BTK WT (Q06187 whole entry): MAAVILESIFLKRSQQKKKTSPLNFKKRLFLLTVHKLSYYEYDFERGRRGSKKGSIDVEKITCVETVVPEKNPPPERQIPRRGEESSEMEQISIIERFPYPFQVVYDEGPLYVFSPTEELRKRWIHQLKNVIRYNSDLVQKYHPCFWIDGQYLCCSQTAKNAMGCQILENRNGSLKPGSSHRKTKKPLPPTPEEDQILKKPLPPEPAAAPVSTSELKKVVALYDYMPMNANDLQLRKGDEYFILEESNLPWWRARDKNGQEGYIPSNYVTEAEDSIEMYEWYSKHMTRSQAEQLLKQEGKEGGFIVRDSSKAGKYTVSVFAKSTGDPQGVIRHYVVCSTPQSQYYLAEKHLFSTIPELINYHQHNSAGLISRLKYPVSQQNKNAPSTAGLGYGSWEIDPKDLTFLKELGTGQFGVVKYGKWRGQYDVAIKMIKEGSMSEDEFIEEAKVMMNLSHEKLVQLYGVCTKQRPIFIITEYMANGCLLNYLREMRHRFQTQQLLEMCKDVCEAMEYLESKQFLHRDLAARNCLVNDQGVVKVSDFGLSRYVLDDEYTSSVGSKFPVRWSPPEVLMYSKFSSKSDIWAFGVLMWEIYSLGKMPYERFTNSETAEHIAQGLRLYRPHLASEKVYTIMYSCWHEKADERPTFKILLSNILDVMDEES
Source text: (§1) The BTK wild-type plasmid and the BTK mutant plasmid (C481S) were respectively transfected into SF9 cells (purchased from invitrogen), and after three generations of virus amplification, the P3-generation virus was used to transfect SF9 cells which were collected after 72-hour culture to obtain protein BTK WT and protein BTK C481S, which were then purified.

[2] = system: phosphorylation of tyrosine Y223 on Btk; assay: Effects on BTK Y223 and downstream signaling pathway proteins in cells (anti-IgM stimulation); assay type: cell-based, human; conditions: Compound 1 in MEC-2, Pfeiffer, Ramos, TMD8, U2932; Compound 35 in MEC-1; 4 hours, then anti-IgM 10 mins
Source text: By assaying a number of cellular biochemical and functional endpoints, the properties of the compounds were further characterized. […] In this experiment, PC132765 (purchased from Shanghai Haoyuan Chemexpress Co., Ltd.), CGI11746 (purchased from Shanghai Haoyuan Chemexpress Co., Ltd.) and Compound 6 (prepared herein) were used as control (see FIGS. 2a-2f).
Effects of the compounds on phosphorylation of BTKY223, BTKY551, PLCγ1Y783, PLCγ2Y759, PLCγ2Y1217, P—NF-κB P65, P-AKT Ser473, Erk Thr202/Tyr204 and the like were determined (FIGS. 2a-2f).

BTK C481S = biological target: T1, BTK C481S (Homo sapiens, UniProt Q06187, C481S); assay: Btk cell-free kinase assay, BTK C481S mutant protein; assay type: biochemical; conditions: compound 30 mins at room temperature, then 100 μM ATP 20 min at 37° C.; read-out: EC50 against BTK C481S
T1 construct: made in house; host or cells: SF9 insect cells
T1 sequence (Q06187 whole entry C481S): as the sequence (Q06187 whole entry) above, with C481S counted along it
Source text: as §1

BTK protein kinase = BTK protein kinase (Homo sapiens, UniProt Q06187); assay: In vitro enzymatic activity against BTK (ADP-Glo); assay type: biochemical; conditions: compound with BTK 4 hours at room temperature; ATP 10 μM, 37° C. 1 hour; values in nM
Sequence of BTK protein kinase (Q06187 whole entry): as the sequence (Q06187 whole entry) above
Method in brief: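 BTK (1.5 ng/μL enzyme solution) was preincubated with compound (final 10 μM to 0.003 μM) for 4 h at room temperature. Reaction ran 1 h at 37 °C with 10 μM ATP and 0.2 μg/μL poly(Glu,Tyr) 4:1 (final). ADP formed was measured by ADP-Glo luminescence, and IC50 was obtained by curve plotting.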

Structure (SMILES)	IC50 (BTK protein kinase) [nM]	further results
C=CC(=O)N1CCC[C@@H](n2nc(-c3ccc(Oc4ccccc4)cc3)c3c(N)ncnc32)C1 [PCI32765, reference compound]		GI50 [1]: 1 nM
C=CC(=O)Nc1cc(Nc2cc(-c3cccc(NC(=O)c4ccc(N(C)C)cc4)c3C)cn(C)c2=O)ccc1C(=O)N1CCOCC1 [Compound 35, N-(3-(5-((3-acrylamide-4-(morpholin-4-carbonyl)phenyl)amino)-1-methyl-6-oxo-1,6-dihydropyridin-3-yl)-2-methylphenyl)-4-(dimethylamino)benzoylamide]	5	EC50 (BTK WT): 16 nM; phosphorylation of tyrosine Y223 on Btk [2]: selectively and significantly inhibit phosphorylation of tyrosine Y223 on Btk; EC50 (BTK C481S): 186 nM
Cc1c(NC(=O)c2ccc(C(C)(C)C)cc2)cccc1-c1cn(C)c(=O)c(Nc2ccc(C(=O)N3CCOCC3)cc2)n1 [CGI1746, reference compound]		GI50 [1]: 126 nM
C=CC(=O)Nc1cc(Nc2cc(-c3cccc(NC(=O)c4cc5c(s4)CCCC5)c3C)cn(C)c2=O)ccc1N1CCCC1 [Compound 80, N-(3-(5-((3-acrylamide-4-(pyrrolidin-1-yl)phenyl)amino)-1-methyl-6-oxo-1,6-dihydropyridin-3-yl)-2-methylphenyl)-4,5,6,7-tetrahydrobenzo[b]thiophene-2-carboxamide]	83	
C=CC(=O)Nc1cc(Nc2cc(-c3cccc(NC(=O)c4ccc(C(C)(C)C)cc4)c3C)cn(C)c2=O)ccc1C [Compound 25, N-(3-(5-((3-acrylamide-4-methylphenyl)amino)-1-methyl-6-oxo-1,6-dihydropyridin-3-yl)-2-methylphenyl)-4-(tert-butyl)benzamide]	212	
C=CC(=O)Nc1cc(Nc2cc(-c3cccc(NC(=O)c4cc5ccccc5s4)c3C)cn(C)c2=O)ccc1N1CCN(C)CC1 [Compound 81, N-(3-(5-((3-acrylamide-4-(4-methylpiperazin-1-yl)phenyl)amino)-1-methyl-6-oxo-1,6-dihydropyridin-3-yl)-2-methylphenyl)-benzo[b]thiophene-2-carboxamide]	28.9	
C=CC(=O)Nc1cc(Nc2cc(-c3cccc(NC(=O)c4ccc(C(C)(C)C)cc4)c3C)cn(C)c2=O)ccc1C(=O)OC [Compound 49, 2-acrylamide-4-((5-(3-(4-(tert-butyl)benzamide)-2-methylphenyl)-1-methyl-2-oxo-1,2-dihydropyridin-3-yl)amino)methyl benzoate]	162	
C=CC(=O)Nc1cc(Nc2cc(-c3cccc(NC(=O)c4ccc(N5CCOCC5)cc4)c3C)cn(C)c2=O)ccc1C(=O)N1CCOCC1 [Compound 15, N-(3-(5-((3-acrylamide-4-(morpholin-4-carbonyl)phenyl)amino)-1-methyl-6-oxo-1,6-dihydropyridin-3-yl)-2-methylphenyl)-4-morpholinbenzoylamide]	262	
C=CC(=O)Nc1cc(Nc2cc(-c3cccc(NC(=O)c4ccc(N5CCCC5)cc4)c3C)cn(C)c2=O)ccc1C(=O)N1CCOCC1 [Compound 45, N-(3-(5-((3-acrylamide-4-(morpholin-4-carbonyl)phenyl)amino)-1-methyl-6-oxo-1,6-dihydropyridin-3-yl)-2-methylphenyl)-4-(pyrrolidin-1-yl)benzoylamide]	101	
C=CC(=O)Nc1cc(Nc2cc(-c3cccc(NC(=O)c4ccc(C(F)(F)F)cc4)c3C)cn(C)c2=O)ccc1C(=O)N1CCOCC1 [Compound 60, N-(3-(5-((3-acrylamide-4-(morpholin-4-carbonyl)phenyl)amino)-1-methyl-6-oxo-1,6-dihydropyridin-3-yl)-2-methylphenyl)-4-(trifluoromethyl)benzoylamide]	104	
